US12679837B2, “Aminopyrimidine compound as CDK2/4/6 triple inhibitor” (CISEN PHARMACEUTICAL CO., LTD, priority 2019, dated 2026)

Columns and labels:
[1] = molecular target: T1, CDK6/CyclinD1 (Homo sapiens, UniProt Q00534); experiment: CDK6/CyclinD1 kinase activity test (LANCE Ultra TR-FRET); format: biochemical; settings: 250 μM ATP, 25° C., 120 minutes; read-out: Enzyme activity data (IC50) CDK6/cyclinD1
T1 construct: purchased Carna
Protocol: Experimental materials: CDK6/CyclinD1 kinase was purchased from Carna, reaction substrate LANCE Ultra ULight™-4E-BP-1 (Thr37146) Peptide and EU-ANTI-P-4EBP1 (THR37/46) were purchased from PerkinElmer. Nivo Multilabel Analyzer (PerkinElmer).
Experimental method: preparation of kinase buffer: The components of the buffer include: 50 mM of hydroxyethylpiperazine […] solution with pH 7.5, 1 mM of EDTA, 10 mM of magnesium chloride, 0.01% lauryl polyoxyethylene ether (Brij-35), 2 mM of enzyme dithiothreitol, kinase buffer dilution enzyme, substrate LANCE Ultra ULight™-4E-BP-1 (Thr37146) Peptide, adenosine triphosphate and inhibitor. […] The reaction system was continued at 25° C. for 120 minutes. After the reaction was complete, a mixture of 5 μL of EDTA and 2× LANCE™ Detection Buffer (1:1) was added to each well, and reacted at 25° C. for 5 minutes, after the reaction was complete, 5 μL of LANCE Ultra Eu-anti-P-4E-BP1(Thr37MS) (4 nM) was added to each well, and reacted at 25° C. for 60 minutes, the reaction signal was detected by Nivo instrument according to the principle of time-resolved fluorescence resonance energy transfer.
Table 1 provides the enzymatic inhibitory activities of the compounds of the present invention on CDK2/CyclinA2, CDK2/CyclinE1, CDK4/CyclinD1, CDK6/CyclinD1, CDK9/CyclinT1.

[2] = tested on: HCT116 cells; experiment: HCT116 cell activity test (CellTiter-Glo); format: cell-based; settings: Homo sapiens, HCT-116, 96 h, 4 days, read-out: Antiproliferative activity (IC50) HCT 116
Protocol: Experimental materials: McCoy' 5a medium, fetal bovine serum, and penicillin/streptomycin antibiotics were purchased from Vicente. CellTiter-Glo (chemiluminescence detection reagent for cell viability) reagent was purchased from Promega. The HCT116 cell line was purchased from Cobioer Biosciences Co., Ltd. Nivo Multilabel Analyzer (PerkinElmer).
Experimental method: HCT116 cells were seeded in a white 96-well plate, 80 μL of cell suspension per well, which contained 1000 HCT116 cells. The cell plate was incubated overnight in a carbon dioxide incubator. The compounds to be tested were diluted 5-fold to the 9th concentration with a row gun, that is, from 2 mM to 5.12 nM, and a double-replicate well experiment was set up. 78 μL of medium was added to the middle plate, and then transferred 2 μL per well of the gradient diluted compound to the middle plate according to the corresponding position, mixed well and transferred 20 μL per well to the cell plate. […] Another cell plate was prepared, and the signal value was read as the maximum value (Max value in the equation below) on the day of drug addition to participate in data analysis. 25 μL of chemiluminescence detection reagent for cell viability was added to each well of the cell plate, and incubated at room temperature for 10 minutes to stabilize the luminescence signal. A multi-label analyzer was used for reading. […]

T1 sequence (Q00534 whole entry): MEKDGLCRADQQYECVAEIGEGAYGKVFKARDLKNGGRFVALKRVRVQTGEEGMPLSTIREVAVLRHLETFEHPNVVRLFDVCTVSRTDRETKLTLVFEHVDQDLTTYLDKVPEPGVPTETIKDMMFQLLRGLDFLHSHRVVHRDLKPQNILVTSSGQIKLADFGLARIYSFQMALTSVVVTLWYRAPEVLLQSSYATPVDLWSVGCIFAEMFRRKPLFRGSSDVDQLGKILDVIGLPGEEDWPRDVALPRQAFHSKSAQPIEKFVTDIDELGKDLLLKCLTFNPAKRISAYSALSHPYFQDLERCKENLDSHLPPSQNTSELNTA
T1 sequence (P24385 whole entry partner): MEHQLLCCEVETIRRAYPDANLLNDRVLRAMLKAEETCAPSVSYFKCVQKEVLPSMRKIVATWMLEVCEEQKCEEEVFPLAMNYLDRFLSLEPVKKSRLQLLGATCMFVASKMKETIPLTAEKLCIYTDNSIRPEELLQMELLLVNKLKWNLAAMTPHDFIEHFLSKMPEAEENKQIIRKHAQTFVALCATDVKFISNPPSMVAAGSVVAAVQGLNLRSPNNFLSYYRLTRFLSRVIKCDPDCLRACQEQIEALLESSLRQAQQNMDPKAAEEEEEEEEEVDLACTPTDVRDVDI

## C[C@@]1(O)CCC[C@H]1N1C(=O)CCc2cnc(NC3CCN(S(C)(=O)=O)CC3)nc21 [Compound 1A]
[1]
  IC50: 1.5 nM
[2]
  IC50: 70 nM
